{
  "source": "PubChem BioAssay AID2252",
  "about": "(Southern Research Specialized Biocontainment Screening …, 2010)",
  "data": [
    {"system": "THP-1 viability, CellTiter-Glo luminescence, 72 h", "assay": "PubChem AID 2252", "units": {"EC50": "µM"}, "values": [
      {"smiles": "O=C(Nc1ccncc1)c1cc(-c2ccccn2)nc2ccccc12", "EC50": 23.7},
      {"smiles": "CCCCc1ccc(NC2=NCCCS2)cc1", "EC50": 21.3},
      {"smiles": "O=C1C=CC(=O)N1CCCCCCN1C(=O)C=CC1=O", "EC50": 3.29},
      {"smiles": "Cc1ccc(-c2ccccc2NC(=O)CS(=O)CC(=O)Nc2ccc(C)c(Cl)c2)o1", "note": "(stereo not given)", "EC50": 32.2},
      {"smiles": "O=C(CC1NCCc2ccccc21)Nc1ccc(Oc2ccccc2)cc1", "note": "(stereo not given)", "EC50": 14.3},
      {"smiles": "O=C(C[n+]1cc(-c2ccccc2)n2c1CCC2)Nc1nc(-c2ccc(F)cc2)cs1", "EC50": 32.4},
      {"smiles": "CC(C)[C@@H](C(=O)NC1CCCC1)N1C(=O)N2CCc3c([nH]c4ccccc34)[C@@]2(C)C1=O", "EC50": 45.5},
      {"smiles": "CCCCOc1ccc(CSC(=N)N)cc1Cl", "EC50": 10.9},
      {"smiles": "CCN1CCN(CCNC(=O)c2ccc3c(c2)N(Cc2ccc(F)cc2)C(=O)/C(=C/c2ccccc2)S3)CC1", "EC50": 9.43},
      {"smiles": "COc1ccc(C(=O)CSc2nnc(-c3cnccn3)n2Cc2ccco2)cc1", "EC50": "< 0.1"},
      {"smiles": "c1ccc(CNc2nc(N3CCN(Cc4ccccc4)CC3)nc3ccccc23)cc1", "EC50": 8.41},
      {"smiles": "COc1ccccc1Nc1c2ccccc2nc2ccccc12", "EC50": 8.38},
      {"smiles": "Fc1cccc(Nc2c3c(nc4ccccc24)CCC3)c1", "EC50": 26.3},
      {"smiles": "O=C(Cc1ccc([N+](=O)[O-])cc1)N/N=C/c1ccc([N+](=O)[O-])o1", "EC50": 12.1},
      {"smiles": "Oc1ccc(CN2CCN(Cc3ccccc3)CC2)c2cccnc12", "EC50": 9.96},
      {"smiles": "COc1ccc(C(=O)NNC(=S)NC(=O)c2ccccc2)cc1", "EC50": 6.81},
      {"smiles": "Cc1cccc(NC2=NC3(CCCCC3)N=C(N)N2)c1", "EC50": 34.2},
      {"smiles": "CC1CCN(CCCNC(=O)c2ccc3c(=O)n(Cc4ccc(Cl)cc4)c(=S)[nH]c3c2)CC1", "EC50": 16.8},
      {"smiles": "O=C1C=C(Nc2ccccc2O)c2ccccc2C1=O", "EC50": 10.8},
      {"smiles": "O=S(=O)(Nc1c(S(=O)(=O)c2ccccc2)c2nc3ccccc3nc2n1C1CCCCC1)c1ccccc1", "EC50": 12.3},
      {"smiles": "CC(C)N1CSC(=S)N(Cc2ccccc2)C1", "EC50": 12.8},
      {"smiles": "C#CCOCCOCCOCCNc1nc(N2CCN(C(=O)CCCCCCCCCCNC(=O)[C@@H](CCSC)n3cc(CCO)nn3)CC2)nc(N2CCN(C(=O)CCCCCCCCCCNC(=O)[C@H]([C@@H](C)CC)n3cc(CCCCCN)nn3)CC2)n1", "EC50": 12.9},
      {"smiles": "CN(C)CCCN1c2ccccc2Sc2ccc(C(F)(F)F)cc21", "EC50": 14.6},
      {"smiles": "CCN(CC)CCNc1nc(-c2ccc(OC)cc2)c(-c2ccc(OC)cc2)s1", "EC50": 22.3},
      {"smiles": "Cc1cc(C2CCCCC2)n(O)c(=O)c1", "EC50": 0.63},
      {"smiles": "Nc1cc(Cl)c2nonc2c1[N+](=O)[O-]", "EC50": 2.73},
      {"smiles": "O=c1c2ccccc2nc(N/N=C/c2c(O)ccc3ccccc23)n1O", "EC50": 0.99},
      {"smiles": "Cc1cc(N/N=C/c2ccc(O)cc2)c2cccc(C)c2n1", "EC50": 7.3},
      {"smiles": "CC(C)(c1ccccc1)c1ccc(OCCCN2CCNCC2)cc1", "EC50": 15.3},
      {"smiles": "Oc1c(CN2CCN(c3ccccn3)CC2)cc(Cl)c2cccnc12", "EC50": 1.64},
      {"smiles": "C#CCOCCOCCOCCNc1nc(N2CCN(C(=O)CCCCCCCCCCNC(=O)[C@H](CO)n3cc(CCCSC)nn3)CC2)nc(N2CCN(C(=O)CCCCCCCCCCNC(=O)[C@H](CCCN=C(N)N)n3cc(C[C@@H](C)CC)nn3)CC2)n1", "EC50": 9.01},
      {"smiles": "Cc1ccc(C(C[N+](=O)[O-])c2c(N)n(C)c(=O)n(C)c2=O)cc1", "note": "(stereo not given)", "EC50": 26.3},
      {"smiles": "CCCCCN=C(N)N/N=C/c1c[nH]c2ccc(OC)cc12", "EC50": 2.57},
      {"smiles": "CCn1nnc(NC(=O)c2ccc([N+](=O)[O-])o2)n1", "EC50": 13.6},
      {"smiles": "c1ccc(Nc2nc(NCC3CCCO3)c3ccccc3n2)cc1", "note": "(stereo not given)", "EC50": 3.83},
      {"smiles": "CN1CCN(C2=Cc3ccccc3Sc3cc(F)c(Cl)cc32)CC1", "EC50": 18.2},
      {"smiles": "CN(C)CCNC(=O)c1ccc(COc2ccc(Cl)cc2Cl)cc1", "EC50": 13.8},
      {"smiles": "CC[C@@H](C)[C@H](CNC)NC[C@@H](Cc1cccc2ccccc12)NCCc1cccc(C(F)(F)F)c1", "EC50": 5.86},
      {"smiles": "NC(=O)c1ccsc1NC(=O)c1ccc2c(c1)CCCC2", "EC50": 40.4},
      {"smiles": "OC(CNCc1ccco1)Cn1c2ccc(Br)cc2c2cc(Br)ccc21", "note": "(stereo not given)", "EC50": 9.67},
      {"smiles": "Cc1c2ccncc2c(C)c2c1[nH]c1ccccc12", "EC50": 2.72},
      {"smiles": "C#CCOCCOCCOCCNc1nc(N2CCN(C(=O)CCCCCCCCCCNC(=O)[C@H](CCCCN)n3cc(C[C@@H](C)CC)nn3)CC2)nc(N2CCN(C(=O)CCCCCCCCCCNC(=O)[C@H](CCCN=C(N)N)n3cc(C[C@@H](C)CC)nn3)CC2)n1", "EC50": 5.23},
      {"smiles": "O=C(N/N=C/c1cc([N+](=O)[O-])ccc1O)c1cccc2cc[nH]c12", "EC50": 1.91},
      {"smiles": "O=C(Nc1cccc(Cl)c1)Nc1nccs1", "EC50": 33.8},
      {"smiles": "O=C(Nc1ccc(Nc2ccncc2)cc1)c1ccc([N+](=O)[O-])cc1", "EC50": 11.9},
      {"smiles": "Clc1ccc2c(c1)C(N1CCNCC1)Cc1ccccc1S2", "note": "(stereo not given)", "EC50": 7.4},
      {"smiles": "Cc1ccc(-c2csc(NC(=O)C[n+]3cc(-c4ccc(C)cc4)n4c3CCC4)n2)cc1", "EC50": 8.33},
      {"smiles": "NC1=NC[C@H](c2ccccc2)N1CCCCC1CCCCC1", "EC50": 6.36},
      {"smiles": "CCN1/C(=C/c2cc[n+](C)cc2)C=Cc2cc(C)ccc21", "EC50": 6.78},
      {"smiles": "Oc1ccc(C[C@H]2CNCCN2CCCCC2CCCCC2)cc1", "EC50": 8.99},
      {"smiles": "NC1=NC[C@H](Cc2ccccc2)N1CCCCC1CCCCC1", "EC50": 3.5},
      {"smiles": "CN1CC=C(/C=C/c2ccc(-c3ccccc3)cc2)CC1", "EC50": 10.5},
      {"smiles": "CCCCCCCCCCOC(=O)Cn1c(COc2ccccc2C)[n+](C)c2ccccc21", "EC50": 1.29},
      {"smiles": "O=C(Nc1nnc(C2COc3ccccc3O2)o1)c1ccc(F)cc1", "note": "(stereo not given)", "EC50": 16.8},
      {"smiles": "CCCCCCCCCCn1c2c(c(=N)c3c1CCC3)CCC2", "EC50": 0.21}
    ]}
  ]
}
